# Source: patent US10357486B2, “Treatment of cognitive impairment with PDE4 inhibitor” (Universiteit Maastricht, priority 2013, dated 2019)
# Test system: 60 to 80 years old subjects (Impaired Elderly and Healthy Elderly)
# Assay: Verbal Learning Task (VLT) in 60 to 80 years old subjects, interim analysis
# Type: in vivo, human
# Method: The study is conducted according to a double-blind, placebo-controlled, four-period cross-over design. Forty healthy subjects, both male and female within an age range of 60 to 80 years are planned to be included in the study in 2 groups: 1) 20 subjects with a memory performance between 1-2 Standard Deviation below the average for their age, gender, and educated level (Impaired Elderly) and 2) 20 subjects with age (±3 years), gender, and educational level matched (in order to speed up the study matching was stopped after the interim analysis) with an average memory performance between 0.5 Standard Deviation below and 0.5 Standard Deviation above from normative values (Healthy Elderly). Classification in terms of impaired or healthy elderly will be determined by a one-off testing of memory performance using the Rey Verbal Learning Task (Rey A; L'examen psychologique dans les cas d'encephalopathy traumatique 1958 Paris; Presses Universitaire de France; or Van der Elst et al; J Int Neuropsychol Soc 2005, 11 (3), pp 290-302) according to fully standardized procedures as applied in The Maastricht Aging Study (Jolles et al; Maastricht Aging Study; determinants of cognitive aging; Maastricht, The Netherlands, Neuropsych Publishers 1995). Normative data for each individual subject will be derived also from the Maastricht Aging Study using the regression formula as described by Van der Elst et al (Van der Elst et al; J Int Neuropsychol Soc 2005, 11 (3), pp 290-302).
# All subjects within their corresponding groups (either Healthy Elderly n=20 or Impaired Elderly n=20) will be randomized in a double blind fashion to 1 of 4 treatment sequences, each sequence consisting of the following periods: A) Placebo+placebo; B) Roflumilast 100 mcg+placebo; C) Roflumilast […]+placebo and D) Roflumilast 1000 mcg (500+500 mcg) according to a computer-generated allocation schedule in a cross-over design. Between each of the four treatment sequences there will be a 12 days washout period.
# Cognitive status will be quantified using computerized cognitive battery, a validated tool for measuring the cognitive impairment in humans. The battery will consist of: VLT, Spatial Memory Task (SMT), Stroop Task, and Bond-Lader Visual Analogue Scales (BL-VAS).
# Verbal learning task (VLT) The Rey VLT as modified by Riedel and colleagues (Riedel, Klaasen et al, Psychopharmacology (Berlin) 1999 Vol 141(4) pp 362-369) is used. This modified VLT maximizes the possibility of measuring enhancement rather than only impairment, by means of prolonging the list. The test consists of a list of 30 monosyllabic words (18 nouns and 12 adjectives). The words are shown on a computer screen for 1 second. Three trials with the same item sequence are presented. Each trial ends with a free recall of the words (immediate recall). Forty-five minutes after the first exposure, the subject is asked to recall as many words as possible (delayed recall). […] The words are shown on a computer screen for 2 seconds and subjects are asked to rate whether they were presented in the learning trial by a “yes/no” response. The inter-word interval is 2 seconds. 24 Hours after the immediate recall, subjects will return to the lab for a second delayed recall and recognition. The remaining 15 old words and 15 new words will be presented during recognition. EEG will be recorded during the immediate recall and the first recognition test on the test day. […]
structure (smiles),measurement,setting,value
"O=C(Nc1c(Cl)cncc1Cl)c1ccc(OC(F)F)c(OCC2CC2)c1 [roflumilast, N-(3,5-dichloropyridin-4-yl)-3-cyclopropylmethoxy-4-difluoromethoxybenzamide]",number of words on the 3rd trial of VLT,"100 mcg single dose, elderly subjects, placebo 8.81",10.28 words
same,placebo-corrected fold-improvement in VLT,"100 mcg single dose, interim data of the elderly study",1.16
same,"increase in the number of correct words recalled after 45 min delayed recall trial of VLT, compared to placebo","100 mcg single dose, pooled interim analysis",1.7 words
same,"increase in the number of correct words immediately recalled after the 3rd trial of VLT, compared to placebo","100 mcg single dose, pooled interim analysis, 9 Impaired and 4 Healthy Elderly",1.5 words
same,"increase in the number of correct words recalled after 45 min delayed recall trial of VLT, compared to placebo","1000 mcg single dose, pooled interim analysis",1.6 words
